# Measured values reported in patent US10722547B2, “Compositions of medicinal plants for reducing the effects of aging, prevention and treatment of age-related neurodegenerative diseases, and treatment of anxiety and sleep disorders” (PharmacoGenetics Limited, priority 2016, dated 2020).
# Key:
# [1] = system: mice; experiment: Locomotor activity test; assay type: in vivo, male ICR mice; details: 3 mg/kg diazepam oral; p<0.001 vs vehicle
# Description: Locomotor activity test. Following the elevated plus-maze and holeboard tests, the Veh-treated mice, DZ-treated mice and variously herbal extract-treated mice were assessed for locomotor activity by means of the ZIL-2 apparatus (Beijing Institute of Materia Medica). The test apparatus, with dimensions of 60 cm×60 cm×12 cm, consisted of a transparent plastic cylindrical box equipped with three evenly spaced infrared beams with photodetectors. The number of transitions made across the infrared beams was recorded automatically over a period of 5 minutes. An increase or decrease in the number of transitions indicated a corresponding increase or decrease in the level of locomotor activity (Hui et al, 2002).
# [2] = system: mice; experiment: Rotarod test; assay type: in vivo, male ICR mice; details: diazepam at 1 or 3 mg/kg oral; p<0.001 vs vehicle
# Description: Rotarod test. Mice randomly separated into groups (n=15−20/group) were orally administered 35 minutes prior to the rotarod test with vehicle (“Veh”, viz. 0.9% NaCl), 1 or 3 mg/kg DZ, or 120 mg/kg of one of the one-, two-, three- or four-herb extracts. The rotarod test for muscle coordination was performed using a custom-built apparatus consisted of a cylinder (2.5 cm diameter) with a textured surface placed 0.5 m above the ground. Prior to oral Veh, DZ or herbal extract administration, the mice were first trained to stay for 2 min on the rotarod revolving at 16 rpm. In the test, the effect of Veh, DZ or herbal extract treatment was examined by placing the mouse on the rotarod and recording the length of time it managed to stay on the rotarod, with cut-off set at 2 min.
# [3] = system: mice; experiment: Step-through passive avoidance test; assay type: in vivo, male ICR mice; details: diazepam at 1 or 3 mg/kg oral; p<0.001 vs vehicle
# Description: Step-through passive avoidance test. Mice randomly separated into groups (n=15−20/group) were orally administered with vehicle (“Veh”, viz. 0.9% NaCl), 1 or 3 mg/kg DZ, or 120 mg/kg of one of the one-, two-, three- or four-herb extracts 35 minutes prior to training trials. The apparatus consisted of a two-chamber box (from Chinese Academy of Chinese Medical Science, Beijing) with one of the chambers being opaque (darkened) and the other transparent (lighted). In the training trials, each mouse was placed into the lighted chamber, and the door connecting the lighted and darkened chambers was opened 10 seconds later. […] In the actual test, after the mouse entered the darkened chamber, the door was closed and a 2-second electric foot shock of 0.4 mA was delivered through the grid floor. Ten seconds later the mouse was transferred from the darkened chamber back to its home cage. After an interval of 24 hours, it was returned to the lighted chamber. The door to the darkened chamber was opened 10 seconds later, and the time taken for the mouse to enter the darkened chamber was recorded as the ‘step-through latency’, with cut-off set at 300 seconds. A significant decrease in step-through latency observed with any group of animals compared to Veh-treated controls was indicative of impaired […] in the form of anterograde amnesia (Nazari-Serenj eh et al, 2011).
# [4] = system: D-galactose treated animals; details: cited from earlier work
# [5] = system: D-galactose treated mice; experiment: Loss of whiskers induced by D-galactose treatment; assay type: in vivo, male ICR mice; details: D-galactose 150 mg/kg daily with or without 120 mg/kg oral extract, 8 weeks; N=12 mice/group
# Description: Chronic exposure to D-galactose is a widely studied aging model that causes shortened lifespan in Drosophila and housefly (Jordens et al 1999; Cui et al 2004), and brings about spatial memory deficit, degeneration in the hippocampus and increased oxidative damage in a D-galactose-induced accelerated-aging model of the mouse (Cui et al 2006). […] In the present study, this D-galactose model was applied to 10 week old male ICR mice (n=8-12 per group). The mice were administered daily with 150 mg/kg D-galactose by subcutaneous injection, accompanied by either daily oral administration of the vehicle (0.9% NaCl) in the D-galactose treated control group (“D-gal”), or daily oral administration of one of the BYPA, BYP, BYA, BPA, YPA, BY, BP and YP herbal extracts (120 mg/kg), for an exposure period of 8 weeks. […] The resultant levels of accelerated aging in the D-gal group, the various herbal extract-treatment groups, and the Veh group were assessed at the end of the 8-week exposure period based on five criteria: (i) body weight; (ii) deficit in spatial memory in the Y-maze test; (iii) levels of the pro-inflammatory cytokine TNF-alpha in the brain; (iv) levels of the pro-inflammatory cytokine IL-6 in the brain; and (v) levels of the oxidative stress marker MDA in the brain. […]
structure (smiles),measurement,setting,value
"CN1C(=O)CN=C(c2ccccc2)c2cc(Cl)ccc21 [diazepam, Diazepam]",locomotor activity,[1],significant reduction
same,time of stay on the moving rotarod (muscle coordination),[2],significant reduction
same,step-through latency (anterograde amnesia),[3],significant anterograde amnesia
CC(C)=CCC[C@](C)(O[C@@H]1O[C@H](CO)[C@@H](O)[C@H](O)[C@H]1O)[C@H]1CC[C@]2(C)[C@@H]1[C@H](O)C[C@@H]1[C@@]3(C)CC[C@H](O)C(C)(C)[C@@H]3[C@@H](O[C@@H]3O[C@H](CO)[C@@H](O)[C@H](O)[C@H]3O)C[C@]12C [ginsenoside Rg1],cognitive impairment and hippocampus senescence,"[4]; 20 mg/kg i.p., Zhu et al 2014",can prevent
"O=C[C@H](O)[C@@H](O)[C@@H](O)[C@H](O)CO [D-gal, D-galactose]",Loss of whiskers (% mice) 0 (no loss of whiskers),[5],50 % mice
same,Loss of whiskers (% mice) + (loss of whiskers),[5],50 % mice
O=C(O)CCCC[C@@H]1CCSS1 [R-α-lipoic acid],cognitive dysfunction and neurodegeneration,"[4]; 100 mg/kg i.p., Cui 2006",can ameliorate
C[C@H]1[C@H](C)CC[C@]2(C(=O)O)CC[C@]3(C)C(=CC[C@@H]4[C@@]5(C)C[C@@H](O)[C@H](O)[C@@](C)(CO)[C@@H]5CC[C@]43C)[C@H]12 [asiatic acid],"elevated levels of brain ROS, TNF-alpha and IL-6","[4]; oral, 10 or 20 mg/kg, Chao et al 2015",can reduce
